Data on three compounds can be found in patent US9114077B2, “Nanocrystals for use in topical cosmetic formulations and method of production thereof” (priority 2006, dated 2015).

Data set [1] is classed as physicochemical. The method, then:
5% Rutin micro-sized powder was dispersed in water, shaken and subsequently centrifuged at 4,000 rpm and then filtered through a 0.45 μm filter to remove any potential non-dissolved fine crystals. A Rutin nanosuspension was treated the same way but using a 0.2 μm filter.

The test system of data set [2] is skin of volunteers (UV erythem). Put plainly: photo-protective potential after topical application in vivo (MED for UV erythem, SPF). As to conditions: human volunteers, 2 mg/cm^2 once daily on 4 days, UV irradiation day 4, 15 min after application. The text has this:
The Rutin and the Hesperidin nanosuspensions were investigated in vivo regarding their photo-protective potential compared to solutions of a water-soluble Rutin conjugate with saccharide (example 15). Topical application of the anti-oxidants should increase the dose required to generate a UV erythem. The higher the photo-protective effect, the higher will be the increase in the MED for UV erythem generation. Based on the ratio MED of treated area/MED untreated area a sun protection factor can be calculated. […] To very well differentiate in efficiency between the preparations, the formulations were applied only over 4 days (day 1, 2, 3 and 4) and only once a day. […] It has to be noted that the selected concentration of Rutin saccharide was equivalent to 5% Rutin.
Various formulations were investigated regarding their photo-protective potential after topical application in vivo. These formulations contained antioxidants and the photo-protective potential was evaluated by assessing the MED for generating an UV erythem (MED—minimal dose required for generating an erythem, minimal erythem dose). The sun susceptibility of the skin of volunteers was assessed after four times of application (once daily) of the formulations in comparison to untreated skin. Based on this a sun protection factor (SPF) was calculated.
The study was performed as a placebo controlled double blind study. Three male and three female volunteers with normal skin of photo type II to III took part. The medium age of the female volunteers was 49.6±9.8 years (38.8-57.4 years). Topical application of the formulations took place on 4 subsequent days (2 mg/cm^2), once daily. On day 4 eradiation by UV was performed 15 minutes after application of the formulations to the skin using a sun simulator SU6p (m.u.t. GmbH, Wedel/Germany). The sun simulator created 6 single doses with a geometric increment of 25%. The 5 test areas were on the back of the volunteers (4 areas for the formulations, 1 untreated control area).
A sun protection factor was defined as the ratio of the MED of the formulation treated area to the MED of the untreated area.

`C[C@@H]1O[C@@H](OC[C@H]2O[C@@H](Oc3c(-c4ccc(O)c(O)c4)oc4cc(O)cc(O)c4c3=O)[C@H](O)[C@@H](O)[C@@H]2O)[C@H](O)[C@H](O)[C@H]1O` [microcrystalline Rutin suspension, Rutin]: the “saturation solubility (concentration of dissolved Rutin in filtrate)” value in data set [1] is recorded as 0.0079%.

Turning to α-G Rutin PS, the entries for the “sun protection factor (SPF) = ratio MED treated area/MED untreated area (partly given as MED)” value in data set [2] (listed as AGRPS), in data set [2] (listed as Rutin derivative solution) and in data set [2] (listed as Rutin saccharide) were 1.27±0.31, 1.27 and 1.27, respectively.

For `CC(=O)Oc1c(C)c(C)c2c(c1C)CCC(C)(CCC[C@H](C)CCC[C@H](C)CCCC(C)C)O2` (stereo partly drawn) [α-tocopherol acetate], the “sun protection factor (SPF) = ratio MED treated area/MED untreated area (partly given as MED)” value in data set [2] is given as 0.85±0.23; in data set [2] (listed as alpha-tocopherol acetate), 0.85.
